This is an account of results in patent publication US8765779B2, “Tricyclic derivatives and their pharmaceutical use and compositions” (Cephalon, Inc., priority 2009, dated 2014).

The target in this experiment is T1, human 5-HT6 receptor (Homo sapiens, UniProt P50406).
T1 construct: host or cells: CHO-K1 cells, stably transfected; membranes prepared in house
Kind of experiment: Human 5-HT6 Receptor Binding Assay ([3H]LSD displacement, scintillation beads). The settings on record: membranes of CHO-K1 cells with recombinant human 5-HT6, 4 nM [3H]LSD; Table 1, class symbols; read-out: h5-HT6 (Ki).

pKi: −log10 of the molar value. Where only a bound is given, the exact number is not on record here.

T1 sequence (P50406 whole entry): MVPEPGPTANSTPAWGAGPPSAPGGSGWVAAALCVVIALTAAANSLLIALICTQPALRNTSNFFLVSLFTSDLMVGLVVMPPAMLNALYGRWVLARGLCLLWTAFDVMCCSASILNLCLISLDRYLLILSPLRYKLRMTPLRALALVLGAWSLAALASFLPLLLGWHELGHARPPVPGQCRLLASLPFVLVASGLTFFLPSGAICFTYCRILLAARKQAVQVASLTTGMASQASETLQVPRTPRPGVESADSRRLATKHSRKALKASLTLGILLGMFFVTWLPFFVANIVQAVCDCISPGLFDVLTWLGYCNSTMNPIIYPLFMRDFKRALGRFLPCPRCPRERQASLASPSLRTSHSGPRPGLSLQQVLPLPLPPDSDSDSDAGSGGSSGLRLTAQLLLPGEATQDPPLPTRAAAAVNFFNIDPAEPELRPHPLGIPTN

What is called pKi is −log10 of the Ki, conventionally taken in molar units. As to `O=S(=O)(c1ccc(F)c(Cl)c1)c1ccc2c3c(oc2c1)CNCC3` [Example 193], the pKi is greater than 6.30.
For the compound `CC1(C(F)F)NCCc2c1oc1cc(S(=O)(=O)c3ccccc3)ccc21` (stereo not drawn) [Example 524], the pKi is greater than 6.30.
In the case of `CC12CCNCC1Oc1ccc(OS(=O)(=O)Cc3ccccc3Cl)cc12` (stereo not drawn) [Example 784] it was greater than 6.30.
With `O=S(=O)(c1cccc(Cl)c1)c1ccc2c3c(oc2c1)CN(CCCO)CC3` [Example 601], the pKi was greater than 6.30.
As for `O=S(=O)(Oc1ccc2c(c1)C1CCNCC1O2)c1ccc2ccccc2c1` (stereo not drawn) [Example 721], the pKi was greater than 6.30.
Consider `CC12CCNCC1Oc1cc(S(=O)(=O)c3ccccn3)ccc12` (racemic) [Example 8, 4a-methyl-7-(pyridin-2-ylsulfonyl)-1,2,3,4,4a,9a-hexahydro[1]benzofuro[2,3-c]pyridine], for which the pKi is less than 6.00.
For the compound `O=S(=O)(c1cc(F)cc(Cl)c1)c1ccc2oc3c(c2c1)CCNC3` [Example 255], the pKi was greater than 6.30.
Turning to `O=S(=O)(c1ccccc1)c1ccc2c3c(oc2c1)CN(CCCO)CC3` [Example 595], the pKi is greater than 6.30.
Turning to `CC1OCCC12NCCc1c2oc2cc(S(=O)(=O)c3cccc(F)c3)ccc12` (single isomer, unassigned) [Example 56, 7-[(3-Fluorophenyl)sulfonyl]-2′-methyl-3,4,4′,5′-tetrahydro-2H-spiro[1-benzofuro[2,3-c]pyridine-1,3′-furan]], the pKi is greater than 6.30.
The result for `O=S(=O)(c1ccc2c3c(oc2c1)CNCC3)c1ccccc1-c1ccccc1` [Example 232] reads greater than 6.30.
As for `O=S(=O)(Nc1ccccc1)c1ccc2c(c1)C1CCNCC1O2` (stereo not drawn) [Example 848], the pKi was less than 6.00.
For the compound `[O-][S+](c1ccc(Cl)c(C(F)(F)F)c1)c1ccc2c3c(oc2c1)CNCC3` (stereo not drawn) [Example 209], the pKi is greater than 6.30.
As to `CC12CCNCC1Oc1ccc(S(=O)(=O)c3cc[n+]([O-])cc3)cc12` (racemic) [Example 14, 4a-methyl-6-[(1-oxidopyridin-4-yl)sulfonyl]-1,2,3,4,4a,9a-hexahydro[1]benzofuro[2,3-c]pyridine], the pKi is less than 6.00.
On to `O=S(=O)(Oc1ccc2c(c1)C1CCNCC1O2)c1cccc(C(F)(F)F)c1` (stereo not drawn) [Example 737], for which the pKi is greater than 6.30.
The result for `CN(C)c1cccc(S(=O)(=O)c2ccc3c4c(oc3c2)CNCC4)c1` [Example 347] reads greater than 6.30.
Consider `CC12CCNCC1Oc1cc(S(=O)(=O)c3cccc4c3OC(F)(F)O4)ccc12` (stereo not drawn) [Example 460], for which the negative-log Ki (pKi) was greater than 6.30.
On to `CC(C)N1CCC2(C)c3cc(OS(=O)(=O)Cc4ccccc4)ccc3OC2C1` (stereo not drawn) [Example 804], for which the pKi is less than 6.00.
The result for `O=S(=O)(c1cc(Cl)cc(Cl)c1)c1ccc2oc3c(c2c1)CCNC3` [Example 262, 6-[(3,5-dichlorophenyl)sulfonyl]-1,2,3,4-tetrahydro[1]benzofuro[2,3-c]pyridine] reads greater than 6.30.
Consider `O=S(=O)(Oc1ccc2c(c1)C1CCNCC1O2)c1ccccn1` (stereo not drawn) [Example 753], for which the pKi is less than 6.00.
With `COc1cc(OC)cc(S(=O)(=O)c2ccc3c(c2)OC2CNCCC32C)c1` (stereo not drawn) [Example 489], the pKi was greater than 6.30.
In the case of `COc1c(F)cc(F)cc1S(=O)(=O)c1ccc2c3c(oc2c1)C(C)(C)NCC3` [Example 470] it was greater than 6.30.
On to `COc1ccc(S(=O)(=O)c2ccc3c(c2)C2CCNCC2O3)cc1` (stereo not drawn) [Example 336], for which the pKi was less than 6.00.
In the case of `O=S(=O)(c1cccc(Cl)c1)c1ccc2c3c(oc2c1)C(CC(F)(F)F)NCC3` (stereo not drawn) [Example 504] it was greater than 6.30.
Consider `O=S(=O)(c1ccccc1)c1ccc2c(c1)OC1CN(C3CCCC3)CCC21` (stereo not drawn) [Example 609], for which the pKi was greater than 6.30.
Regarding `O=S(=O)(c1ccc2c3c(oc2c1)CNCC3)c1cccc2ccccc12` [Example 202], the pKi is greater than 6.30.
For the compound `CCCCOc1cc(OC)cc(S(=O)(=O)c2ccc3c(c2)OC2CNCCC32)c1` (stereo not drawn) [Example 587], the pKi was greater than 6.30.
In the case of `CC(C)Oc1cc(OCCO)cc(S(=O)(=O)c2ccc3c(c2)OC2CNCCC32)c1` (stereo not drawn) [Example 590] it was greater than 6.30.
